Assay results: ChEMBL document CHEMBL4138123, “Design, synthesis and biological evaluation of novel pyrazolochalcones as potential modulators of PI3K/Akt/mTOR pathway and inducers of apoptosis in breast cancer cells” (Eur J Med Chem, 2017)
Calls of active or inactive are those of the source. The rule behind the calls is not given here.

Columns and labels:
MCF7 [1] = test: Induction of intrinsic apoptosis in human MCF7 cells assessed as effect on mitochondrial membrane depolarization at 2 uM after 18 hrs by DiOC6 staining-based FACS analysis (reference value: 2%); type: functional
MCF7 [2] = test: Induction of intrinsic apoptosis in human MCF7 cells assessed as effect on mitochondrial membrane depolarization by measuring mean fluorescence intensity at 2 uM after 18 hrs by DiOC6 staining-based FACS analysis (reference value: 463); type: functional
MCF7 [3] = test: Cell cycle arrest in human MCF7 cells assessed as accumulation at G2/M phase at 2 uM after 24 hrs by flow cytometric analysis (reference value: 2.35%); type: functional
MCF7 [4] = test: Cell cycle arrest in human MCF7 cells assessed as accumulation at S phase at 2 uM after 24 hrs by flow cytometric analysis (reference value: 79.1%); type: functional
MCF7 [5] = test: Cell cycle arrest in human MCF7 cells assessed as accumulation at G0/G1 phase at 2 uM after 48 hrs by flow cytometric analysis (reference value: 34.2%); type: functional
MCF7 [6] = test: Cell cycle arrest in human MCF7 cells assessed as accumulation at S phase at 2 uM after 48 hrs by flow cytometric analysis (reference value: 57.7%); type: functional
MCF7 [7] = test: Cell cycle arrest in human MCF7 cells assessed as accumulation at G2/M phase at 2 uM after 48 hrs by flow cytometric analysis (reference value: 8.1%); type: functional
MCF7 [8] = test: Induction of apoptosis in human MCF7 cells assessed as late apoptotic cells at 2 uM after 24 hrs by Annexin-V FITC/propidium iodide staining-based FACS analysis (reference value: 5.4%); type: functional
MCF7 [9] = test: Induction of apoptosis in human MCF7 cells assessed as viable cells at 2 uM after 24 hrs by Annexin-V FITC/propidium iodide staining-based FACS analysis (reference value: 93.9%); type: functional; details: MCF7, 24 h, read-out: Activity
MCF7 [10] = test: Induction of apoptosis in human MCF7 cells assessed as necrotic cells at 2 uM after 24 hrs by Annexin-V FITC/propidium iodide staining-based FACS analysis (reference value: 0.2%); type: functional
MCF7 [11] = test: Downregulation of PI3K protein expression in human MCF7 cells at 2 uM after 24 hrs by Western blot analysis; type: functional, cell-based
MCF7 [12] = test: Downregulation of Akt protein expression in human MCF7 cells at 2 uM after 24 hrs by Western blot analysis; type: functional, cell-based
MCF7 [13] = test: Downregulation of mTOR protein expression in human MCF7 cells at 2 uM after 24 hrs by Western blot analysis; type: functional, cell-based
MCF7 [14] = test: Inhibition of PI3K in human MCF7 cells assessed as increase in GSK-3beta phosphorylation at Ser9 at 2 uM after 24 hrs by Western blot analysis; type: cell-based
MCF7 [15] = test: Upregulation of PTEN protein expression in human MCF7 cells at 2 uM after 24 hrs by Western blot analysis; type: functional, cell-based
MCF7 [16] = test: Downregulation of Akt protein expression in human MCF7 cells at 2 uM after 48 hrs by Alexa/DAPI staining-based immunofluorescence analysis; type: functional, cell-based
MCF7 [17] = test: Downregulation of PI3K mRNA expression in human MCF7 cells at 2 uM after 48 hrs by qRT-PCR analysis; type: functional, cell-based
MCF7 [18] = test: Upregulation of PTEN mRNA expression in human MCF7 cells at 2 uM after 48 hrs by qRT-PCR analysis; type: functional, cell-based
MCF7 [19] = test: Upregulation of BAX mRNA expression in human MCF7 cells at 2 uM after 48 hrs by qRT-PCR analysis; type: functional, cell-based
MCF7 [20] = test: Upregulation of TP53 mRNA expression in human MCF7 cells at 2 uM after 48 hrs by qRT-PCR analysis; type: functional, cell-based
MCF7 [21] = test: Induction of intrinsic apoptosis in human MCF7 cells assessed as effect on mitochondrial membrane depolarization at 2 uM after 5 hrs by DiOC6 staining-based FACS analysis relative to control; type: functional

SMILES: COc1cc(C(=O)/C=C/c2cc(-c3cc(OC)c(OC)c(OC)c3)n[nH]2)cc(OC)c1OC
- Activity (MCF7 [1]): 1%
- Flu intensity (MCF7 [2]): 637
- Activity (MCF7 [3]): 10.3%
- Activity (MCF7 [4]): 73.1%
- Activity (MCF7 [5]): 62%
- Activity (MCF7 [6]): 33%
- Activity (MCF7 [7]): 4.96%
- Activity (MCF7 [8]): 11.2%
- viability at 2 µM (MCF7 [9]): 84.6%
- Activity (MCF7 [10]): 1.1%
- Activity (MCF7 [11]): Active
- Activity (MCF7 [12]): Active
- Activity (MCF7 [13]): Active
- Activity call (increase in GSK-3beta Ser9 phosphorylation) (MCF7 [14]): Active
- Activity (MCF7 [15]): Active
- Activity (MCF7 [16]): Active
- Activity (MCF7 [17]): Active
- Activity (MCF7 [18]): Active
- Activity (MCF7 [19]): Active
- Activity (MCF7 [20]): Active

SMILES: COc1cc(C(=O)/C=C/c2cc(-c3ccc4c(c3)OCO4)n[nH]2)cc(OC)c1OC
- Activity (MCF7 [21]): 3.4%
- Activity (MCF7 [1]): 26%
- Flu intensity (MCF7 [2]): 313
- Activity (MCF7 [3]): 64.6%
- Activity (MCF7 [4]): 0%
- Activity (MCF7 [5]): 39%
- Activity (MCF7 [6]): 59.1%
- Activity (MCF7 [7]): 1.98%
- Activity (MCF7 [8]): 8.4%
- viability at 2 µM (MCF7 [9]): 89.2%
- Activity (MCF7 [10]): 0.1%
- Activity (MCF7 [11]): Active
- Activity (MCF7 [12]): Active
- Activity (MCF7 [13]): Active
- Activity call (increase in GSK-3beta Ser9 phosphorylation) (MCF7 [14]): Active
- Activity (MCF7 [15]): Active
- Activity (MCF7 [16]): Active
- Activity (MCF7 [17]): Active
- Activity (MCF7 [18]): Active
- Activity (MCF7 [19]): Active
- Activity (MCF7 [20]): Active

SMILES: COc1ccc(-c2cc(/C=C/C(=O)c3ccc(OC)c(OC)c3)[nH]n2)cc1
- Activity (MCF7 [1]): 26%
- Flu intensity (MCF7 [2]): 355
- Activity (MCF7 [3]): 18.6%
- Activity (MCF7 [4]): 66.1%
- Activity (MCF7 [5]): 44.6%
- Activity (MCF7 [6]): 38.9%
- Activity (MCF7 [7]): 16.5%
- Activity (MCF7 [8]): 4.4%
- viability at 2 µM (MCF7 [9]): 93.8%
- Activity (MCF7 [10]): 0.7%
- Activity (MCF7 [11]): Active
- Activity (MCF7 [12]): Active
- Activity (MCF7 [13]): Active
- Activity call (increase in GSK-3beta Ser9 phosphorylation) (MCF7 [14]): Active
- Activity (MCF7 [15]): Active
- Activity (MCF7 [16]): Active
- Activity (MCF7 [17]): Active
- Activity (MCF7 [18]): Active
- Activity (MCF7 [19]): Active
- Activity (MCF7 [20]): Active

SMILES: COc1ccc(C(=O)/C=C/c2cc(-c3cc(OC)c(OC)c(OC)c3)n[nH]2)cc1OC
- Activity (MCF7 [1]): 42%
- Flu intensity (MCF7 [2]): 294
- Activity (MCF7 [3]): 39.9%
- Activity (MCF7 [4]): 29.3%
- Activity (MCF7 [5]): 43.9%
- Activity (MCF7 [6]): 43%
- Activity (MCF7 [7]): 13.1%
- Activity (MCF7 [8]): 4.2%
- viability at 2 µM (MCF7 [9]): 94.3%
- Activity (MCF7 [10]): 0.1%
- Activity (MCF7 [11]): Active
- Activity (MCF7 [12]): Active
- Activity (MCF7 [13]): Active
- Activity call (increase in GSK-3beta Ser9 phosphorylation) (MCF7 [14]): Active
- Activity (MCF7 [15]): Active
- Activity (MCF7 [16]): Active
- Activity (MCF7 [17]): Active
- Activity (MCF7 [18]): Active
- Activity (MCF7 [19]): Active
- Activity (MCF7 [20]): Active

SMILES: COc1ccc(C(=O)/C=C/c2cc(-c3cc(OC)c(OC)c(OC)c3)n[nH]2)cc1
- Activity (MCF7 [11]): Active
- Activity (MCF7 [12]): Active
- Activity (MCF7 [13]): Active
- Activity call (increase in GSK-3beta Ser9 phosphorylation) (MCF7 [14]): Active
- Activity (MCF7 [15]): Active
- Activity (MCF7 [16]): Active
- Activity (MCF7 [17]): Active
- Activity (MCF7 [18]): Active
- Activity (MCF7 [19]): Active
- Activity (MCF7 [20]): Active
